In ChEMBL document CHEMBL5653615 (J Biol Chem, 2013) one finds inhibition data, which are given here for three compounds.

Assay [1] deals with T1, Serine/threonine-protein kinase D3 (Homo sapiens) (UniProt O94806).
T1 sequence (whole entry): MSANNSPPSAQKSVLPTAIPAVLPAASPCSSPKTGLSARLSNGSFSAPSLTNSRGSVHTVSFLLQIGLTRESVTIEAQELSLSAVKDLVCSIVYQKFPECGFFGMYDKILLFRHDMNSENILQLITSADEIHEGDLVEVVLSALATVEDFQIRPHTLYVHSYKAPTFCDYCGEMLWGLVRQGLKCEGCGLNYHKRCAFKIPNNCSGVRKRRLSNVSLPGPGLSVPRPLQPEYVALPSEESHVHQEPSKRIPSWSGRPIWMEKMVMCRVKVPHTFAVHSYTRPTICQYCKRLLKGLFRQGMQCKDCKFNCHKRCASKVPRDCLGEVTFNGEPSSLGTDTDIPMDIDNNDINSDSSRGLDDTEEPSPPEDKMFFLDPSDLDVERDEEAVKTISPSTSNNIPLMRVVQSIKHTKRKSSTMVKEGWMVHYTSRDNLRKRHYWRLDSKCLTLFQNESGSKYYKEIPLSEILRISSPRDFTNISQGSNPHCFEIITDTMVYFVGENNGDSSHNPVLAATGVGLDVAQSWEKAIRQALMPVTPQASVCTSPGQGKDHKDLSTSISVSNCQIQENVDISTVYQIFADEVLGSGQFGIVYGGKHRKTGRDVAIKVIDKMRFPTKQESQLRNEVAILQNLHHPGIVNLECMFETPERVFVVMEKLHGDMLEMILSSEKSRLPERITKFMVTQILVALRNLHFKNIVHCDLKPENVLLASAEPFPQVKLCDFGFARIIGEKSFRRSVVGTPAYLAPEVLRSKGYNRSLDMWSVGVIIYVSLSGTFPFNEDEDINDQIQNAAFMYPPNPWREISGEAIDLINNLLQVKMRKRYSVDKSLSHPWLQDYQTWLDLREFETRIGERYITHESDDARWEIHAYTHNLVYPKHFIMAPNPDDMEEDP
The assay can be described thus: Inhibition of human PRKD3 at 18.6 nM by HotSpot assay relative to control.

For assay [2], the target named is Ribosomal protein S6 kinase alpha-3 (Homo sapiens) (UniProt P51812). The assay can be described thus: Inhibition of human RSK2 at 18.6 nM by HotSpot assay relative to control.
Assay [3] addresses Mitogen-activated protein kinase 10 (Homo sapiens) (UniProt P53779). The assay can be described thus: Inhibition of human JNK3 at 18.6 nM by HotSpot assay relative to control.
Assay [4] concerns the target Macrophage-stimulating protein receptor (Homo sapiens) (UniProt Q04912). The assay can be described thus: Inhibition of human MST1R at 18.6 nM by HotSpot assay relative to control.
Assay [5] has as its target T2, Serine/threonine-protein kinase Sgk2 (Homo sapiens) (UniProt Q9HBY8).
T2 sequence (whole entry): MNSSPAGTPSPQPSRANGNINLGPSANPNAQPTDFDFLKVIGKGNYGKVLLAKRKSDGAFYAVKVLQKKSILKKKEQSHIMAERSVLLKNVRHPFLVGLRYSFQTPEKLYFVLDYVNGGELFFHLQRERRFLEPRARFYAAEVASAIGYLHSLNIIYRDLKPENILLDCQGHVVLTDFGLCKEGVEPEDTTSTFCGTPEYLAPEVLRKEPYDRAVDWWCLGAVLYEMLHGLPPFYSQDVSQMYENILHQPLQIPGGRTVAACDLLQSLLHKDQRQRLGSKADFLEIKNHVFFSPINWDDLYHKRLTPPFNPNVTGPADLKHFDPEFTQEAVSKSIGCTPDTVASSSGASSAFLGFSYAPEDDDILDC
The assay can be described thus: Inhibition of human SGK2 at 18.6 nM by HotSpot assay relative to control.

For a further assay, the species on record is Homo sapiens. As to the kind of experiment: Inhibition of human TAO1 at 18.6 nM by HotSpot assay relative to control.
In assay [6] the target is Calcium/calmodulin-dependent protein kinase type II subunit beta (Homo sapiens) (UniProt Q13554). The assay can be described thus: Inhibition of human CAMK2b at 18.6 nM by HotSpot assay relative to control.
Assay [7] deals with Insulin receptor (Homo sapiens) (UniProt P06213). As to the kind of experiment: Inhibition of wild-type human Insulin receptor transfected in CHO-K1 cell lysate assessed as decrease in tyrosine phosphorylation at 10 uM for 30 mins on ice followed by insulin stimulation for 10 mins by Western blot analysis. The settings on record: time 40.0 min. Type of assay: subcellular. In general terms: In western blotting, separated proteins are transferred to a membrane and probed.

For assay [8], the target named is Dual specificity mitogen-activated protein kinase kinase 2 (Homo sapiens) (UniProt P36507). As to the kind of experiment: Inhibition of human MEK2 at 1.82 nM by HotSpot assay relative to control.
Dual specificity mitogen-activated protein kinase kinase 2 (Homo sapiens), sequence (P36507 whole entry): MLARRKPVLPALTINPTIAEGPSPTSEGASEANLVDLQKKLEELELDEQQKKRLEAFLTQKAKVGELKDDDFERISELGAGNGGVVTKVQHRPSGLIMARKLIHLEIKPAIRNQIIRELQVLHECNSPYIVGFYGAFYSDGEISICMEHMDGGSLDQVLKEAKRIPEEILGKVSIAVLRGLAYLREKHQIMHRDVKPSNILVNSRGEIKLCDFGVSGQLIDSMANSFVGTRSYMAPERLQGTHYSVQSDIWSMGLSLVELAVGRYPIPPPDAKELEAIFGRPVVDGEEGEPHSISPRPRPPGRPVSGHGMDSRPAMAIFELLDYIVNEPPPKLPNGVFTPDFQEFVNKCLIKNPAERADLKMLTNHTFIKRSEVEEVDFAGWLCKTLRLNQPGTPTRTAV
Assay [9] deals with Protein-tyrosine kinase 2-beta (Homo sapiens) (UniProt Q14289). As to the kind of experiment: Inhibition of human PYK2 at 1.82 nM by HotSpot assay relative to control.
Protein-tyrosine kinase 2-beta (Homo sapiens), sequence (Q14289 whole entry, looked up): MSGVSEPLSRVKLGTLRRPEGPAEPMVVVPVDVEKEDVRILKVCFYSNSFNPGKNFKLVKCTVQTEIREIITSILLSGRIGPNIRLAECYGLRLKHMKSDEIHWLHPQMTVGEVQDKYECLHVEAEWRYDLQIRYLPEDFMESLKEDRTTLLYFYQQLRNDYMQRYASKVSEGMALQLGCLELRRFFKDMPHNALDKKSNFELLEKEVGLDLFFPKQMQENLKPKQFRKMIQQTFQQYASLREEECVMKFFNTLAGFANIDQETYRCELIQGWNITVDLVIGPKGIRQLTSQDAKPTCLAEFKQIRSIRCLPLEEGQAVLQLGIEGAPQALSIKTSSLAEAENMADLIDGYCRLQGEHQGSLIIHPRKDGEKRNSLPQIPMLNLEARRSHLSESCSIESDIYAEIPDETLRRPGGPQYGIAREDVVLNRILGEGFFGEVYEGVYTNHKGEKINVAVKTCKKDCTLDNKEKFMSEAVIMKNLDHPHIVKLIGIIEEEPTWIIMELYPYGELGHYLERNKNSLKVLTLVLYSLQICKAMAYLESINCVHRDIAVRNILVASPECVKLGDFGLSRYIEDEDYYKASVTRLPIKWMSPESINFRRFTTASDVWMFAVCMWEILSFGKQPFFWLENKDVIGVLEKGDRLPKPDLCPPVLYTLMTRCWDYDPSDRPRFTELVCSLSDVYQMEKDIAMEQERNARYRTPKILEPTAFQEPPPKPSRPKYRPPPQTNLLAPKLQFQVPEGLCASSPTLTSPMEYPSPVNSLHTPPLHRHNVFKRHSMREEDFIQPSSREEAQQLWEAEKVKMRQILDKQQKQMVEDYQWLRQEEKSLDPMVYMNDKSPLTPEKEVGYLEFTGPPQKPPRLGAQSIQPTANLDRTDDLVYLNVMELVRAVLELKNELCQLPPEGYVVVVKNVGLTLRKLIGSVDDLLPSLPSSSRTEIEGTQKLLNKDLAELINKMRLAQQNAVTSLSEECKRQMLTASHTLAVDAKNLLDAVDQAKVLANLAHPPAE
The target in assay [10] is T3, Serine/threonine-protein kinase D2 (Homo sapiens) (UniProt Q9BZL6).
T3 sequence (whole entry): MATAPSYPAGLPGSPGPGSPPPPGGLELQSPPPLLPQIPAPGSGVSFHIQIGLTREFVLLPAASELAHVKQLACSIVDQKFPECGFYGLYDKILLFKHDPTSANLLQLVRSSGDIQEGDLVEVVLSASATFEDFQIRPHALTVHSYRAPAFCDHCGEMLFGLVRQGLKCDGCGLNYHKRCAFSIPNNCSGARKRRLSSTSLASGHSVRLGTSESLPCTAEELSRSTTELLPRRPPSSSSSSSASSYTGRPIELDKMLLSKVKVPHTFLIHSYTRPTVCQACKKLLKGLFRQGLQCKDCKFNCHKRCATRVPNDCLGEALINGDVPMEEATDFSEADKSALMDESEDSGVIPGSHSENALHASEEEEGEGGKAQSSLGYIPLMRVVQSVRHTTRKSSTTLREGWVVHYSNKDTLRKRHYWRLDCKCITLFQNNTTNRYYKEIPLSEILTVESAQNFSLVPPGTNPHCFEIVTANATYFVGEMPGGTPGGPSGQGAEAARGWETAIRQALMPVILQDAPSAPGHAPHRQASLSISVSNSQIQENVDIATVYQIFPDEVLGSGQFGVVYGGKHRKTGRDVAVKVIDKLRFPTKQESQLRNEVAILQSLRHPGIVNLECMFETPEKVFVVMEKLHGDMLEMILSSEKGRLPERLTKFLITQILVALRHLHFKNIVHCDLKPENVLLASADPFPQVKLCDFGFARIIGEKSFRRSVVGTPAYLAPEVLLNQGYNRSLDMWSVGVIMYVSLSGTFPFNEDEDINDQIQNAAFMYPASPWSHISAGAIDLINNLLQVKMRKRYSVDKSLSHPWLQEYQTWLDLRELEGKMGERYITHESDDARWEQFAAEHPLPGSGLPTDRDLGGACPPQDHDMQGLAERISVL
As to the kind of experiment: Inhibition of human PRKD2 at 1.82 nM by HotSpot assay relative to control.

The target in assay [11] is Mitogen-activated protein kinase kinase kinase 11 (Homo sapiens) (UniProt Q16584). As to the kind of experiment: Inhibition of human MAP3K11 at 1.82 nM by HotSpot assay relative to control.
Mitogen-activated protein kinase kinase kinase 11 (Homo sapiens), sequence (Q16584 whole entry, looked up, canonical isoform): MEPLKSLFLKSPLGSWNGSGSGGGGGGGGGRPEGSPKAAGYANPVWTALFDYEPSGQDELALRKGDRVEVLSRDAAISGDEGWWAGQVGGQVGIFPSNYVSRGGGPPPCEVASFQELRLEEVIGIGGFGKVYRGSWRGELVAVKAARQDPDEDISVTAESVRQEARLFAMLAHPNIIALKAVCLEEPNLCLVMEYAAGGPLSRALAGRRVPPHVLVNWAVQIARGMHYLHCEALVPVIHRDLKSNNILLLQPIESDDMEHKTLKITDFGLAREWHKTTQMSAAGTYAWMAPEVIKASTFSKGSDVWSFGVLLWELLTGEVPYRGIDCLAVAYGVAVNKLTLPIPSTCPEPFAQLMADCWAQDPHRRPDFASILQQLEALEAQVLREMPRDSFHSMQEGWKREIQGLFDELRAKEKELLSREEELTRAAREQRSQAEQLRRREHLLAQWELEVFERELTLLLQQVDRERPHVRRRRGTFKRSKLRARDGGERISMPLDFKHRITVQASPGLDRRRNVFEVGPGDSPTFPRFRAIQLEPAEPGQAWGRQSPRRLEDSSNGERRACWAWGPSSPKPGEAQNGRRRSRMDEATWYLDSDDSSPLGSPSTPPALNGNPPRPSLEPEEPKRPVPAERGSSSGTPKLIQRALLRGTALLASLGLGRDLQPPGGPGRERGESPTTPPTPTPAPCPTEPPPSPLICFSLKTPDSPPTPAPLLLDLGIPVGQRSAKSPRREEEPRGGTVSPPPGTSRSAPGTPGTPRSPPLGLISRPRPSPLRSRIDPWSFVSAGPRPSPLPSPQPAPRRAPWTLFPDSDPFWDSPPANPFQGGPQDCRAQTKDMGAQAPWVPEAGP
Assay [12] has as its target Casein kinase I isoform epsilon (Homo sapiens) (UniProt P49674). As to the kind of experiment: Inhibition of human CK1epsilon at 1.82 nM by HotSpot assay relative to control.

Active and inactive are the calls of the source. The rule behind the calls is not given here.

Macrophage-stimulating protein receptor (Homo sapiens), sequence (Q04912 25-304 limits assumed): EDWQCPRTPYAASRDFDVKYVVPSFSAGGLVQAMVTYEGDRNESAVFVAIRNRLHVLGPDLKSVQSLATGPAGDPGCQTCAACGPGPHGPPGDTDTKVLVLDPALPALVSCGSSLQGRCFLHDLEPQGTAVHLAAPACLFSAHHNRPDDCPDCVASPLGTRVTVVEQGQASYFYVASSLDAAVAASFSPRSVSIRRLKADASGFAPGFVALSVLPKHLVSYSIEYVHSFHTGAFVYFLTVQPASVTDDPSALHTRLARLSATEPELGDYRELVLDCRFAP
Macrophage-stimulating protein receptor (Homo sapiens), sequence (Q04912 310-1400 limits assumed): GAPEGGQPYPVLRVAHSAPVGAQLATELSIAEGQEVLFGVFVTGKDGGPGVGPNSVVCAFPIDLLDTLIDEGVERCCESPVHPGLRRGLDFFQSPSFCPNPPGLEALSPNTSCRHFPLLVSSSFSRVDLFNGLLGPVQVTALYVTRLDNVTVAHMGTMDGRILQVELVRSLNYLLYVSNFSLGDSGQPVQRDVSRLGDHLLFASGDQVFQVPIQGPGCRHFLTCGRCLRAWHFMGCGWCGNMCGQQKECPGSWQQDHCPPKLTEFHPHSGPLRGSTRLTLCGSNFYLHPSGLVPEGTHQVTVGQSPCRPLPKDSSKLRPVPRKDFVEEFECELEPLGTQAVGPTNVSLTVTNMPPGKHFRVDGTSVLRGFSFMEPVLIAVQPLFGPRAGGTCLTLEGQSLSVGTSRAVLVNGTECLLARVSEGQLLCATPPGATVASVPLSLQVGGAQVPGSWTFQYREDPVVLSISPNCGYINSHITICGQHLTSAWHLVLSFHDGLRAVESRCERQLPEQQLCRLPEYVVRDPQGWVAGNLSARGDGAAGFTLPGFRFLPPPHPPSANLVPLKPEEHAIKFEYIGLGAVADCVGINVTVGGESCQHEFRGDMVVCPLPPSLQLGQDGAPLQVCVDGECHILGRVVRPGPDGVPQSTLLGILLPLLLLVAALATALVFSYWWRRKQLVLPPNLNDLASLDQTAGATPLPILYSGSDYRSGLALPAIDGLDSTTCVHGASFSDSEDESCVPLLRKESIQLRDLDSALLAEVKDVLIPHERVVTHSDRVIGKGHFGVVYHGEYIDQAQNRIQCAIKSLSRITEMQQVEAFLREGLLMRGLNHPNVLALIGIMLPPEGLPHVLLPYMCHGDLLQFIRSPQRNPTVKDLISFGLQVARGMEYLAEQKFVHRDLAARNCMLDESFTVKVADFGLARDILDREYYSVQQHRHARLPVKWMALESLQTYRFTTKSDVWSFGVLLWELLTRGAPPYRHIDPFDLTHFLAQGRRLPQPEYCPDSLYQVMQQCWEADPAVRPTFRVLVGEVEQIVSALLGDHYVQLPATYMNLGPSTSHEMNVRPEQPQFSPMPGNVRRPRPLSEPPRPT
Mitogen-activated protein kinase 10 (Homo sapiens), sequence (P53779 whole entry): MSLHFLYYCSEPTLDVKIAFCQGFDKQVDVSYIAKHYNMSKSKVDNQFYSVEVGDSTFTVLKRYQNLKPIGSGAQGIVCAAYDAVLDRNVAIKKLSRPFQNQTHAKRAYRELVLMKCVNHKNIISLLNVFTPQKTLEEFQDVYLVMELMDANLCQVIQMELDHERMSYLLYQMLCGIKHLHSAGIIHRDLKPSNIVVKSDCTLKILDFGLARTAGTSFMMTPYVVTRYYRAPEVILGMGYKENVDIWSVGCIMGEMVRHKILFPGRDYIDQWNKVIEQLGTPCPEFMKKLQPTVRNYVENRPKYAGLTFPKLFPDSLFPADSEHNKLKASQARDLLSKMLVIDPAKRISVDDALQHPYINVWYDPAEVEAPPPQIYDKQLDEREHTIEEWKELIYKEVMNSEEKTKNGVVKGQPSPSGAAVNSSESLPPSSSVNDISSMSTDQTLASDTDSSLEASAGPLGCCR
Casein kinase I isoform epsilon (Homo sapiens), sequence (P49674 whole entry, looked up, canonical isoform): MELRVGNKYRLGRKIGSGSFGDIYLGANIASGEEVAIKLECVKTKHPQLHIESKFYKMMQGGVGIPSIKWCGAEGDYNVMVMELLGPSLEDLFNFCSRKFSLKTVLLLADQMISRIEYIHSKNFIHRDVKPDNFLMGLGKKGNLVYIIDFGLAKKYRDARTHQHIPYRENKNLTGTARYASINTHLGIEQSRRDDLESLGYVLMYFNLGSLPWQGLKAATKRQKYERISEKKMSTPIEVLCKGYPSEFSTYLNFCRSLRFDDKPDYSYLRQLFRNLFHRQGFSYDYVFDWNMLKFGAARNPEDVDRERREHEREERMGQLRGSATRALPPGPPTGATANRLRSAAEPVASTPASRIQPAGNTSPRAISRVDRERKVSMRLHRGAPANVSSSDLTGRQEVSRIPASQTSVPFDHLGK

With `C[C@]1(O)C[C@@H](c2nc(-c3ccc4ccc(-c5ccccc5)nc4c3)c3c(N)nccn32)C1`, the inhibition was 9.14% in assay [1]; 1.82% in assay [2]; -3.24% in [3]; 0.1% in [4]; -3.95% in assay [5]; 1.8% in the assay filed under Homo sapiens. Further, the inhibition in assay [6] is -1.75%.

With `Oc1n[nH]c2nnc(-c3c(-c4ccccc4)nn4ccccc34)cc12`, in assay [7], the inhibition entry is “Active”.

Regarding `C[C@@]1(C(=O)Nc2ccc(F)nc2)CCCN1c1nc(Nc2cc(C3CC3)n[nH]2)c2cccn2n1`, the inhibition in assay [8] turned out to be 1.78%; in [9] it was 1.81%; in assay [10], 2.22%; in assay [11] it was 2.47%; in [12] it was 1.26%.

As a reminder, the inhibition is the relative decrease from the control value, in per cent.
